# Laboratory results published in patent US20260216362A1, “ANTI-BDCA2 ANTIBODY-DRUG CONJUGATE AND USE THEREOF” (DUALITY BIOLOGICS (SHANGHAI) CO., LTD., priority 2022, published 2026).
# What was measured:
# [1] = tested on: human peripheral blood mononuclear cells; experiment: Inhibition of CpG-A-induced TNF-α production from human peripheral blood mononuclear cells by BDCA2-ADC; format: cell-based; details: 0.5 μM CpG-A, 24 h
# Experimental: The inhibitory effects of the antibody-drug conjugate molecules of the present application on the production from peripheral blood mononuclear cells were detected. Peripheral blood mononuclear cells produce a large number of cytokines after the stimulation of the TLR9 agonist CpG-A. The peripheral blood mononuclear cells were treated in vitro with the BDCA2 antibody-drug conjugate at different concentrations, and IFNα and TNFα produced by the peripheral blood mononuclear cells were quantitatively detected after the stimulation of 0.5 μM CpG-A for a certain period of time. The in vitro activity of the ligand-drug conjugates was evaluated based on the extent of cytokine inhibition.
# The cryopreserved human peripheral blood mononuclear cells were thawed, resuspended in a complete culture medium and counted, and the cell suspension was adjusted to 2.5×10^6 cells/mL with the culture medium and cultured overnight. […] The supernatant was collected, and the TNF-α and IFN-α concentration levels in the supernatant were detected using an ELISA kit. Dose-response data were fitted to an S-shaped curve using non-linear regression, and IC50 values were calculated.
# TNF-α concentration assay was performed using a Dakewe TNF-α ELISA kit (Cat. No. 1117202). […] The reading at wavelength 450 nm was detected using an M2e instrument within 10 min after the termination. […]
# [2] = tested on: human PBMC cells; experiment: Inhibition by humanized antibodies of IFNα release from human PBMC cells stimulated by CpG-A; format: cell-based; details: Table 4, humanized antibodies; read-out: EC50, inhibition of release of cytokine IFNα from human PBMC cells stimulated by CpG-A
# Experimental: A series of humanized candidate antibody molecules were selected and subjected to the function detection of inhibiting the release of the cytokine IFNα from the human PBMC cells stimulated by CpG-A. The cryopreserved human PBMC cells were thawed and incubated in a complete culture medium (1640+10% FBS+1×NEAA+1×L-Glutamine) overnight for 18 h. The next day, the PBMC cells were collected and centrifuged at 600 g for 8 min, and the supernatant was discarded. The cells were resuspended to 8×10^6 cells/mL in a culture medium (1640+10% FBS), and the mixture was added to a 3799 cell culture plate at 100 μL/well. The test antibody was diluted in a 10-fold gradient (0.0001 nM-10 nM, and 0 concentration point was used as a control) with the culture medium (1640+10% FBS), and the diluted antibody was added to the PBMCs at 50 μL/well. The cells were resuspended and then incubated at 37° C. for 6 h. 50 μL of CpG-A (2 μM, Invitrogen, tlrl-2216-5) diluted in the culture medium (1640+10% FBS) was added to each well and mixed, followed by incubation at 37° C. for another 20 h. […]
# The antibody MT1/3/5 (Mabtech, 3425-1H-20) was diluted to 4 μg/mL with PBS, and added to a CORNING ELISA plate at 100 μL/well. […] The values at OD450 nm were read on an ELISA plate reader, and curves were fitted using GraphPad Prism6. […]
# [3] = tested on: pDCs in the peripheral blood of cynomolgus monkeys; experiment: pDC percentage and BDCA2 expression level on pDCs in peripheral blood of dosed cynomolgus monkeys by FACS; details: 10 mg/kg intravenous
# Experimental: Nine female cynomolgus monkeys were divided into 3 groups, 3 cynomolgus monkeys per group.
# The pDC percentage in the peripheral blood and the BDCA2 expression level on the surface of pDCs were detected by FACS.
# Venous blood of the cynomolgus monkeys was collected by using a heparin anticoagulation tube, 6 mL of red blood cell lysis buffer was added to 300 μL of the blood, and the resulting mixture was placed at room temperature for 10 min. The cells were collected by centrifugation at 400 g for 5 min at room temperature. The cells were washed with PBS and resuspended in 100 μL of cell staining buffer (PBS+1% FBS). 5 μL of Fc Block was added to the cell suspension and left to stand at 4° C. for 10 min. […] The cells were washed twice with PBS, resuspended in 200 μL of the cell staining buffer, and analyzed by using a flow cytometer.
substance,measurement,setting,value
"BIIB059: reference antibody specifically binding to BDCA2, sequence derived from U.S. Pat. No. 9,902,775B2; SEQ ID NO: 25 and 26 [reference compound]",inhibitory effect on TNF-α secretion,[1],did not have an inhibitory effect
same,EC50,[2],40 pM
same,BDCA2 level on the surface of pDCs in the blood compared to the blank control,[3],reduced
same,pDC percentage in the blood compared to the blank control,[3],no significant change
